Source: ChEMBL document CHEMBL4834468, “Enantioselective Synthesis and Profiling of Potent, Nonlinear Analogues of Antimalarial Tetraoxanes E209 and N205” (ACS Med Chem Lett, 2021)
Converted amounts (≈) assume the structure as drawn.

Experiments:
[1] = Solubility of the compound in FaSSIF assessed as equilibrium pH; format: physicochemical; conditions: simulated gi fluid
[2] = tested on: Plasmodium falciparum; assay: microbe, parasite or virus in culture; conditions: W2, 72 h
Description: Antiplasmodial activity against chloroquine-resistant Plasmodium falciparum W2 incubated for 72 hrs by spectrophotometry based parasite lactate dehydrogenase assay

[3] = Solubility of the compound in FaSSIF; format: physicochemical
[4] = Solubility of compound in 0.1 M HCl; format: physicochemical
[5] = tested on: Plasmodium falciparum; assay: microbe, parasite or virus in culture; conditions: D10, 72 h
Description: Antiplasmodial activity against chloroquine-sensitive Plasmodium falciparum D10 incubated for 72 hrs by spectrophotometry based parasite lactate dehydrogenase assay

[6] = Solubility of compound in 0.1 M HCl assessed as equilibrium pH; format: physicochemical; conditions: buffer
[7] = Oral bioavailability in Sprague-Dawley rat at 10 mg/kg administered as single dose; format: ADME, organism-based; conditions: in vivo
[8] = Aqueous solubility of compound in PBS at pH 7.4; format: physicochemical
[9] = Tmax in Sprague-Dawley rat at 10 mg/kg, po administered as single dose; format: ADME, organism-based; conditions: in vivo
[10] = Cmax in Sprague-Dawley rat at 10 mg/kg, po administered as single dose; format: ADME, organism-based; parameters: route oral, dose 10 mg/kg; conditions: in vivo
[11] = AUC (infinity) in Sprague-Dawley rat at 10 mg/kg, po administered as single dose; format: ADME, organism-based; parameters: time infinity, route oral, dose 10 mg/kg; conditions: in vivo
[12] = Intrinsic clearance in human liver microsome up to 30 mins by LC-MS analysis; format: ADME; conditions: liver microsomes, read-out: CLH
[13] = Intrinsic clearance in rat hepatocytes measured per 10^6 cells up to 120 mins by LC-MS analysis; format: ADME, cell-based, Hepatocyte; conditions: read-out: CLH
[14] = Intrinsic clearance in mouse liver microsome by LC-MS/MS analysis; format: ADME, microsomes
[15] = tested on: Plasmodium falciparum; assay: Antiplasmodial activity against chloroquine-sensitive Plasmodium falciparum 3D7; format: functional, organism-based
[16] = Intrinsic clearance in mouse liver microsome assessed as half life by LC-MS/MS analysis; format: ADME; conditions: microsomes

SMILES	pH [1]	IC50 [2] [nM]	solubility at 1 h [3] [µg/mL]	solubility [4] [µg/mL]	IC50 [5] [nM]	pH [6]	solubility [8] [µM]	microsomal CLint [12] [µL/min/mg]	hepatocyte CLint [13] [µL/min/1e6 cells]	other results
FC1CCN(Cc2ccc(C3CCC4(CC3)OOC3(OO4)C4CC5CC(C4)CC3C5)cc2)CC1 (centres undefined)	6.1	11.7	14.8 (≈ 31.4 µM)	101 (≈ 214 µM)	16.1	1	–	–	–	–
c1cc(C2CCC3(CC2)OOC2(OO3)C3CC4CC(C3)CC2C4)ccc1CN1CCOCC1 (centres undefined)	6.1	8.65	24 (≈ 52.7 µM)	21.2 (≈ 46.5 µM)	9.38	1	0.106 (≈ 0.0483 µg/mL)	–	–	bioavailability [7]: 41.3%; Tmax [9]: 4.33 h; Cmax [10]: 136 ng/mL; AUC(0-inf) [11]: 608 ng·h/mL
FC1CCN(CCOc2ccc(C3CCC4(CC3)OOC3(OO4)C4CC5CC(C4)CC3C5)cc2)CC1 (centres undefined)	6.42	8.49	215 (≈ 429 µM)	1790 (≈ 3570 µM)	8.96	1.13	0.1 (≈ 0.0502 µg/mL)	23	12	–
c1cc(C2CCC3(CC2)OOC2(OO3)C3CC4CC(C3)CC2C4)ccc1OCCN1CCOCC1 (centres undefined)	–	10.1	–	–	12.4	–	–	–	–	–
c1cc([C@@H]2CCCC3(C2)OOC2(OO3)C3CC4CC(C3)CC2C4)ccc1CN1CCOCC1 (some centres undefined)	6.43	11.2	324 (≈ 711 µM)	188 (≈ 413 µM)	12.5	1.12	0.1 (≈ 0.0456 µg/mL)	27.1	26.2	bioavailability [7]: 76.4%; Tmax [9]: 2 h; Cmax [10]: 410 ng/mL; AUC(0-inf) [11]: 1440 ng·h/mL
FC1CCN(CCOc2ccc([C@H]3CCCC4(C3)OOC3(OO4)C4CC5CC(C4)CC3C5)cc2)CC1 (some centres undefined)	6.43	22.5	413 (≈ 823 µM)	1270 (≈ 2530 µM)	20.8	1.14	0.1 (≈ 0.0502 µg/mL)	26.3	16.7	–
c1cc(C2CCCC3(C2)OOC2(OO3)C3CC4CC(C3)CC2C4)ccc1OCCN1CCOCC1 (centres undefined)	–	17.7	–	–	16.4	–	–	–	–	–
c1cc([C@H]2CCCC3(C2)OOC2(OO3)C3CC4CC(C3)CC2C4)ccc1OCCN1CCOCC1 (some centres undefined)	6.42	15.8	69 (≈ 142 µM)	284 (≈ 585 µM)	16	1.11	0.1 (≈ 0.0486 µg/mL)	22.1	49.2	–
NC1CCN(C(=O)O[C@@H]2CCC[C@]3(C2)OOC2(O3)C3CC4CC(C3)CC2C4)CC1 (some centres undefined)	–	–	–	–	–	–	–	–	–	microsomal CLint ([14]; liver microsomes, read-out: CLH): 155 µL/min/mg; EC50 [2]: 1.8 nM
FC1CCN(CCOc2ccc([C@@H]3CCCC4(C3)OOC3(OO4)C4CC5CC(C4)CC3C5)cc2)CC1 (some centres undefined)	–	19.2	–	–	17.5	–	0.1 (≈ 0.0502 µg/mL)	19.8	13.5	–
FC1CCN(Cc2ccc([C@@H]3CCCC4(C3)OOC3(OO4)C4CC5CC(C4)CC3C5)cc2)CC1 (some centres undefined)	6.43	10.3	195 (≈ 413 µM)	95 (≈ 201 µM)	10.6	1.12	0.1 (≈ 0.0472 µg/mL)	35.9	19.2	–
c1cc([C@@H]2CCCC3(C2)OOC2(OO3)C3CC4CC(C3)CC2C4)ccc1OCCN1CCOCC1 (some centres undefined)	–	16	–	–	17.4	–	0.1 (≈ 0.0486 µg/mL)	22.2	21.6	–
FC1CCN(Cc2ccc([C@H]3CCCC4(C3)OOC3(OO4)C4CC5CC(C4)CC3C5)cc2)CC1 (some centres undefined)	6.44	14.9	189 (≈ 401 µM)	60 (≈ 127 µM)	16.5	1.14	< 0.1	26.7	30.7	–
c1cc([C@H]2CCCC3(C2)OOC2(OO3)C3CC4CC(C3)CC2C4)ccc1CN1CCOCC1 (some centres undefined)	6.42	15.2	248 (≈ 544 µM)	165 (≈ 362 µM)	15.2	1.13	0.1 (≈ 0.0456 µg/mL)	19.7	50.2	–
c1cc(C2CCCC3(C2)OOC2(OO3)C3CC4CC(C3)CC2C4)ccc1CN1CCOCC1 (racemic)	–	11.2	–	–	15.4	–	–	–	–	–
FC1CCN(Cc2ccc(C3CCCC4(C3)OOC3(OO4)C4CC5CC(C4)CC3C5)cc2)CC1 (racemic)	–	14.4	–	–	15.7	–	–	–	–	–
FC1CCN(CCOc2ccc(C3CCCC4(C3)OOC3(OO4)C4CC5CC(C4)CC3C5)cc2)CC1 (racemic)	–	12.8	–	–	12.9	–	–	–	–	–
c1cc([C@H]2CC[C@]3(CC2)OO[C@]2(O3)C3CC4CC(C3)CC2C4)ccc1OCCN1CCOCC1 [ARTEFENOMEL]	6.6	–	120 (≈ 256 µM)	–	–	–	0.85 (≈ 0.399 µg/mL)	–	–	IC50 [15]: 5.1 nM
C[C@H]1[C@@H](O)O[C@@H]2O[C@@]3(C)CC[C@H]4[C@H](C)CC[C@@H]1[C@@]24OO3 [ARTENIMOL]	–	1.02	–	–	2.59	–	–	–	–	–
CC(C)(N)CNC(=O)C[C@H]1CC[C@]2(CC1)OO[C@]1(O2)C2CC3CC(C2)CC1C3 [OZ277]	–	–	–	–	–	–	–	–	–	t1/2 [16]: 2.13 h; CLH ([14]; microsomes): 5.4 µL/min/mg
